What was measured:
[1] = Nucleic acid encapsulation in SNALP, RiboGreen fluorescence assay; assay type: physicochemical; details: SNALP DSPC:Chol:PEG-C-DMA:Cationic Lipid 20:48:2:30 molar percent, siRNA; mean of 3 experiments, error is standard deviation
Experimental: (§1) SNALP Preparation: SNALP with a lipid composition of DSPC:Chol:PEG-C-DMA:Cationic Lipid (20:48:2:30 molar percent) were prepared using the spontaneous vesicle formation by ethanol dilution method [Jeffs et al., Pharm. Res. In Press (2005)]. The sample's were diafiltered against 100 mL of PBS (20 wash volumes) using a cross flow ultrafiltration cartridge (Amersham Biosciences, Piscataway, N.J.) and sterile filtered through Acrodisc 0.2 μm Posidyne filters (Pall Corp., Ann Arbor, Mich.). The siRNA concentration of final samples was determined using the RiboGreen assay and a siRNA standard curve. Particle size and polydispersity was determined using a Malvern Instruments Zetasizer 3000HSA (Malvern, UK). Nucleic acid encapsulation was determined using a RiboGreen assay, comparing fluorescence in the presence and absence of Triton X-100. RiboGreen fluorescence was measured using a Varian Eclipse Spectrofluorometer (Varian Inc) with λex=500 nm, λem=525 nm.
(§2) This example sets forth the physical properties of the SNALP formulations described herein. SNALP containing the various cationic lipids were prepared as described and encapsulated RNA and particle size assessed (Table 1 below). […] Polydispersity of all formulations was low, indicating a narrow distribution of particle size. RNA encapsulation in the final particles was 84-85% of the total.
(§3) Percentage Encapsulation was determined using the RiboGreen fluorescence assay to measure the amount of encapsulated nucleic acid relative to the total nucleic acid present. Particle diameter and polydispersity was measured using a Malvern Zetasizer. Values are the mean of 3 separate experiments, the error is standard deviation.

[2] = SNALP particle diameter and polydispersity, Malvern Zetasizer; assay type: physicochemical; details: SNALP DSPC:Chol:PEG-C-DMA:Cationic Lipid 20:48:2:30 molar percent; mean of 3 experiments, error is standard deviation
Experimental: as §1, §2, §3

[3] = tested on: luciferase expression in Neuro2A-G cells (Neuro2A cells stably transfected to express luciferase); test: In vitro transfection: luciferase gene silencing by SNALP encapsulating anti-luciferase siRNA; assay type: cell-based; details: for luciferase expression relative to untreated control: after 48 hours
Experimental: In vitro Transfection: Cells were cultured in MEM (Invitrogen) containing 10% fetal bovine serum (FBS) (CanSera) and 0.25 mg/mL G418 (Invitrogen). Neuro2A-G cells (Neuro2A cells stably transfected to express luciferase [R. E. Kingston. in Current Protocols in Molecular Biology, Vol. 2, pp. 9.1.4-9.1.9, John Wiley & Sons, Inc. (1997)]) were plated at a concentration of 4×10^4 cells per well in 24-well plates and grown overnight. Cells were treated with SNALP at doses of 0.0625-1.0 μg/mL nucleic acid (AntiLuc Active or Mismatch Control) and incubated for 48 hours at 37° C. and 5% CO2. Cells were then washed with PBS and lysed with 200 μL 250 mM sodium phosphate containing 0.1% Triton X-100. The luciferase activity for each well was determined using Luciferase Reagent (Promega) and a standard luciferase protein (Roche). The luminescence for each was measured using a Berthold MicroLumatPlus LB96V plate luminometer. The resulting luciferase activity was then normalized for the amount of protein using the Micro BCA assay kit (Pierce). Luciferase knockdown relative to a control was then determined for each system.
This example describes experiments comparing expression of nucleic acids following in vitro transfection of Neuro2A cells with SNALP comprising: (1) DODAC, DODMA, or DLinDMA; (2) PEG-C-DMA; and (3) an siRNA duplex directed against luciferase encapsulated in the SNALP (i.e., siRNA comprising the following sequence: […] (SEQ ID NO:1) and targeting the DNA sequence complementary to: […] (SEQ ID NO:3)). Neuro2A cells were stably transfected with a plasmid encoding luciferase under the control of the CMV promoter (pLO55). The stably transfected cells were then transfected with SNALP comprising: 15, 20, 25, 30, 35, or 40% of DODAC, DODMA, or DLinDMA; 2% PEG-C-DMA, and an siRNA duplex directed against luciferase encapsulated in the SNALP. Luciferase protein expression was measured 48 hours after transfection with SNALP.
The ability of SNALP containing each of the four cationic lipids (i.e., DSDMA, DODMA, DLinDMA, and DLenDMA) to effect gene silencing in stably transfected Neuro2A cells was evaluated. Neuro2A cells stably transfected to express the luciferase were treated with SNALP containing anti-luciferase siRNA for 48 hours. Gene-silencing efficiency was evaluated by comparing the remaining luciferase activity in these cells to that remaining in cells treated with control SNALP containing mismatch siRNA.

[4] = TNS assay, apparent pKa of cationic lipid incorporated in SNALP; details: TNS fluorescence, pH varied from 4.5 to 9.5
Experimental: TNS Assay: 20 μM of SNALP lipid and 6 μM of TNS were mixed in a fluorescence cuvette in 2 mL of 20 mM sodium phosphate, 25 mM citrate, 20 mM ammonium acetate and 150 mM NaCl, at a pH that was varied from 4.5 to 9.5. Fluorescence was determined at each pH using a Varian Eclipse Spectrofluorometer (Varian Inc) with settings of λex=322 nm, λem=431 nm. Fluorescence for each system at the various pH was then normalized to the value at pH 4.5. The pKa values are the point at which 50% of the molecules present are charged. By assuming that minimum fluorescence represents zero charge, and maximum fluorescence represents 100% charge, pKa can be estimated by measuring the pH at the point exactly half way between the values of minimum and maximum charge.
TNS is electrostatically attracted to positively charged membranes. Subsequent adsorption to the lipid membrane results in the immediate environment of the TNS becoming more lipophilic, removing the water molecules that otherwise quench TNS fluorescence. Since TNS is more readily absorbed by positively charged membranes, TNS fluorescence is an indicator of positive membrane surface charge. The surface pKa values of each SNALP formulation were determined by varying the local pH in the presence of TNS.

[5] = SNALP with anti-luciferase siRNA

| SMILES | % Encapsulation [1] [%] | Diameter (nm) [2] [nm] | Polydispersity [2] | knockdown in gene expression (luciferase) versus control SNALP containing mismatch siRNA ([3]; Neuro2A cells stably expressing luciferase, SNALP with anti-luciferase siRNA, 48 hours) [%] | reduction of luciferase expression compared with SNALP comprising DODAC or DODMA ([3]; SNALP with 30% cationic lipid, 2% PEG-C-DMA, anti-luciferase siRNA, 48 hours after transfection) | luciferase expression relative to untreated control [3, 5] [%] | apparent (surface) pKa of cationic lipid in SNALP [4] |
| --- | --- | --- | --- | --- | --- | --- | --- |
| CCCCC/C=C\C/C=C\CCCCCCCCOCC(CN(C)C)OCCCCCCCC/C=C\C/C=C\CCCCC (centres unmarked) [DLinDMA, 1,2-DiLinoleyloxy-N,N-dimethylaminopropane] | 84 ± 3 | 140 ± 6 | 0.11 ± 0.02 | 80 | more effective in reducing luciferase expression | 21 | – |
| CCCCCCCCCCCCCCCCCC[N+](C)(C)CCCCCCCCCCCCCCCCCC [DODMA, dioctadecyldimethylammonium] | 84 ± 1 | 137 ± 4 | 0.12 ± 0.01 | – | – | 54 | 7.0 |
